# What was measured:
# [1] = tested on: HDFs; assay: proliferation of HDFs; format: cell-based, human
# [2] = tested on: Young and aged HDFs; assay: scratch migration assay; format: cell-based, human; conditions: for migrated cells (Dapi staining) versus untreated control: 5 mM BHB 72 hours, 18 hours after scratch
# Procedure: Young and aged HDFs were grown to confluence in 0.2% FBS 5 mM glucose DMEM media, cells were treated with or without the presence of 5 mM BHB for 72 hours, cells were scratched with 200 uL yellow pipette tip. After 18 hours, migrated cells were counted using Dapi staining.
# [3] = tested on: Primary human dermal fibroblasts (HDFs); assay: ROS production (DHE cytosolic, MitoSOX Red mitochondrial) in stressed primary human dermal fibroblasts; format: cell-based; conditions: for decrease of cytosolic ROS production (DHE) / reduction of mitochondrial ROS production (MitoSOX Red): 5 mM BHB 72 hours, then 100 μM tert-butyl-hydrogen peroxide 3 hrs
# Procedure: Primary human dermal fibroblasts (HDFs, passaged 2-8) from young and aged donors (24 to 88 years) were incubated in the absence or presence of BHB for 72 hours prior to stress with 100 μM tert-buytl-hydrogen peroxide for 3 hours. ROS production was measured fluorescently with dihydroethidium (DHE, cytosolic) and MitoSOX Red (mitochondrial) in triplicate, N=6. In the cytosol, aged HDFs produced 28% (p=<0.001)) more ROS basally compared to their young counterparts. When incubated in BHB for 72 hours, ROS production in the young HDFs decreased by 40% (p=<0.0001) and by 41% (p=<0.0001) in the aged. In the mitochondria, aged HDFs produced 27% (p=<0.0001) more ROS at baseline than the young HDFs, consistent with observations in cytosol. […] As such, ketone supplementation is useful against redox stress and augments wound healing, shifting redox homeostasis in HDFs, especially in the elderly. Primary human dermal fibroblasts (HDFs, passaged 2-8) from young and aged donors (24 to 88 years) were incubated in the absence or presence of 5 mM beta-hydroxybutyrate (BHB) for 72 hours. To simulate a wound environment, the cells were then stressed with 100 μM tert-butyl-hydrogen peroxide for 3 hrs. ROS production was measured fluorescently with dihydroethidium (DHE, cytosolic) and Mitosox Red (mitochondrial) in triplicate, N=6. In the cytosol, seen in FIG. 2(A), aged HDFs produced 25% (p=0.003) more ROS basally compared to their young counterparts. This is consistent with the knowledge that aged cells have less antioxidants to mitigate the ROS production in a stressed environment. When incubated in 5 mM BHB for 72 hours, young HDFs ROS production decreased by 40% (p=<0.0001) and aged ROS production decreased by 41% (p=<0.0001). […] When incubated in BHB, ROS production was reduced in the young by 29% (p<0.0001) and in the aged by 51% (p<0.0001) compared to the controls. […] Significance calculated using one-way ANOVA and t-tests on Prism 6 software.
compound,measurement,setting,value
"CC(O)CC(=O)O (stereo not drawn) [BHB, beta-hydroxybutyrate]",proliferation,[1],did not significantly change proliferation
same,migrated cells (Dapi staining) versus untreated control,[2]; aged HDFs,migrated significantly more
same,migration,"[2]; both young and aged HDFs, in words",did increase migration
same,migrated cells (Dapi staining) versus untreated control,[2]; young HDFs,migrated significantly more
same,decrease of cytosolic ROS production (DHE),[3]; aged HDFs,41%
same,reduction of mitochondrial ROS production (MitoSOX Red),[3]; aged HDFs,51%
same,decrease of cytosolic ROS production (DHE),[3]; young HDFs,40%
same,reduction of mitochondrial ROS production (MitoSOX Red),[3]; young HDFs,29%
same,cytosolic and mitochondrial ROS production,"[3]; young and aged primary human dermal fibroblasts, in words",reduces cytosolic and mitochondrial ROS production
